Consider three molecules from publication PMC8597055, “Exploration of Pyrazolo[1,5‐a]pyrimidines as Membrane‐Bound Pyrophosphatase Inhibitors” (Chemmedchem, 2021).

Structures are written as SMILES. pIC50: −log10 of the molar value. Values joined by “and” are separate entries in the source; they are usually repeats but may differ in a detail not shown here. Equal values may be shown once. Read-outs that look alike come from different tables or passages of the source.

A short description of data set [1]: Colloidal aggregation by nephelometry under TmPPase assay conditions. It is filed as physicochemical. Here is the method: In order to rule out a cause of false positives, colloidal aggregation in the TmPPase model assay was evaluated for compounds 17 a, 19 a and 20 a at six concentrations (100 μM, 50 μM, 20 μM, 10 μM, 1 μM, and 0.1 μM) using the assay conditions (Figure S3).
3 Aggregation data for 17a, 19a and 20a (Figure S3)
Potential colloidal aggregation in the TmPPase model system was studied by nephelometric methods using Nepheloskan Ascent® (Labsystems, Finland). The original assay conditions were simulated, and the light scattering of potential aggregates in the mixture was studied at six concentrations (100 µM, 50 µM, 20 µM, 10 µM, 1 µM and 0.1 µM). Aggregation of the blank and compounds 17a, 19a and 20a was measured as quadruplicates from one independent experiment at three different voltages (300 V, 400 V and 500 V) at room temperature. […]
values at 10 µM, 1 µM and 0.1 µM were similar to those observed by the blank, indicating merely […]
Figure S3. Aggregation data for compounds 17a, 19a and 20a. The data, measured in relative nephelometric units (RNU), is shown as the mean ± SD and normalized to the blank.
(1 picture or pasted object on this page, not shown here)

For data set [2], the target named is T1, Thermotoga maritima mPPase (TmPPase) (Thermotoga maritima, UniProt Q9S5X0). Kind of data set: TmPPase inhibition assay (96-well). The format is biochemical. As to conditions: for pIC50: TmPPase inhibition, NA = IC50 not assigned, read-out: IC50 [CI95%]. The source says:
We started from the previously identified 5‐arylisoxazole‐3‐carboxylate core present in 2–5 (Figure 1, highlighted in blue). Using KNIME,[30] we did a substructure search for commercial analogues in the ZINC12 database[31] […] Therefore, we manually picked compounds from a diverse collection provided by a single vendor (Ambinter, 174 matches for the substructure query). Out of the search results, we selected fifteen isoxazoles for testing in vitro. For all compounds in this manuscript, we tested activity using a 96‐well based assay that detects the inhibition of TmPPase.[22, 23, 24]
(§1) All commercially obtained compounds had purities >90 % as specified by the vendor. Synthesized compounds were >95 % pure as determined by LC–MS and characterized by HRMS. The inhibition assay was carried out with purified TmPPase as previously reported.[22, 23, 24] The best hits 17 a, 19 a, and 20 a, were validated using eight compound concentrations in triplicate. Further hit validation was done against the purified mPPase from P. falciparum (PfPPase‐VP1) expressed in baculovirus‐infected insect cells (expression, purification and further enzyme analysis will be described in more detail elsewhere). 4 μL of the purified PfPPase‐VP1 (2.0 mg/mL) was reactivated in 96 μL of reactivation buffer, i. e. 20 mM 2‐(N‐morpholino)ethanesulfonic acid (MES) pH 6.5, 3.5 % (v/v) glycerol, 2 mM dithiothreitol (DTT) and 12 mg/mL L‐α‐phosphatidylcholine from soybean. For each tube strip, 3 μL of the reactivated PfPPase‐VP1 was added into 12 μL of reaction buffer (200 mM Tris‐Cl pH 8.0, 8.0 mM MgCl2, 333 mM KCl, 67 mM NaCl) and 25 μL of inhibitor solution. The reaction mixtures were incubated at 50 °C for 5 min and the assay was started with the addition of 10 μL of 2 mM sodium pyrophosphate and further incubation at 50 °C for 45 min. The reaction termination and colour development were done as earlier described.[22, 23, 24]
6 IC50 plots from the TmPPase inhibition assay
The blue and black curves refer to compounds presented already in the main article and only shown in the Supporting Information, respectively. IC50, half maximal inhibitory concentration; CI95%, half maximal inhibitory concentration expressed as a 95% confidence interval (given in square brackets); […]
IC50 determinations were done using R 3.6.1[2] and the n-parameter logistic regression (nplr) package[3] version 0.1.7. In this package, the weighted nplr, given x (compound concentrations) and y values (activity) is calculated using Richard’s equation (eq 1) where B and T are the bottom and top asymptotes, respectively; b and xmid are the Hill slope and the x coordinate at inflexion point, respectively; and s is an asymmetric coefficient. The model parameters were simultaneously optimized using non-linear minimization, using a sum of squared errors.[4] The standard error of the model, defined as the squared error on the fitted values, is used to estimate a confidence interval at 95% on the predicted IC50 values.

Data set [3] addresses purified mPPase from P. falciparum (PfPPase-VP1) (Plasmodium falciparum, UniProt Q8IKR1). Description: PfPPase-VP1 inhibition assay. It is filed as biochemical. As to conditions: purified PfPPase-VP1, 50 °C, three replicates; for pIC50: read-out: IC50. As for the experimental part: Further hit validation was done against the purified mPPase from P. falciparum (PfPPase‐VP1) expressed in baculovirus‐infected insect cells. […] Overall, these compounds have higher IC50 values for PfPPase‐VP1 than for TmPPase.
as §1

In data set [4] the test system is Plasmodium falciparum parasite strain 3D7. Description: P. falciparum survival (growth) assay in erythrocyte culture, SYBR Green I. It is filed as cell-based. The settings on record: 72 h, strain 3D7 in human erythrocytes. As for the experimental part: Plasmodium falciparum parasite strain 3D7 was used for testing the antiplasmodial activity of the test compounds. The parasite was maintained in culture as described previously.[37] Briefly, parasites were cultured in O+ human erythrocytes at 5 % haematocrit in RPMI‐1640 medium supplemented with 0.5 % Albumax II (Gibco, Carlsbad, CA, USA), 200 μM hypoxanthine (Sigma, St. Louis, MO, USA) and 20 μg/mL gentamycin (Gibco). Parasites were synchronized with the sorbitol method as described.[38] Test compounds were dissolved in DMSO to make a stock solution of 10 mM or 50 mM. Two‐fold serial dilutions of the test compounds were made in the culture medium to cover either the range of 100 μM–100 nM or 400 μM–390 nM. 50 μL of each dilution were mixed in 96‐well plate with 150 μL of 2 % haematocrit of 0.5 % parasitemia (ring stage). Compound dilutions were also mixed with 150 μL of 2 % haematocrit of uninfected erythrocytes to serve as baselines for the activity of the coloured compounds. DMSO concentration in the highest compound concentration was 0.8 %. After 72 h incubation at 37 °C, the parasite growth was quantified using fluorescent SYBR Green I®‐based assay as described.[39] The half‐maximal inhibitory concentration (IC50) of the test compounds was assessed using the non‐linear regression fit model in Prism 7 (GraphPad Software, San Diego, CA, USA). The potent anti‐malarial drug, artemisinin, was used in parallel as a positive control. Each concentration of the test compounds was tested in duplicate and the assay was repeated three times. The mean and standard deviation of the three repeats were used to calculate the IC50.

Data set [5] addresses T1, Thermotoga maritima mPPase (TmPPase). Details: method as in PMID 31131322, PMID 32292570. The settings on record: previously reported inhibitors, read-out: IC50 [CI95%]; cited from earlier work.
The test system of data set [6] is Plasmodium falciparum parasite strain 3D7. Details: method as in PMID 32292570. The settings on record: cited from earlier work.
Setting [7] is: Plasmodium falciparum, 3D7, Erythrocyte.

T1 sequence (Q9S5X0 whole entry): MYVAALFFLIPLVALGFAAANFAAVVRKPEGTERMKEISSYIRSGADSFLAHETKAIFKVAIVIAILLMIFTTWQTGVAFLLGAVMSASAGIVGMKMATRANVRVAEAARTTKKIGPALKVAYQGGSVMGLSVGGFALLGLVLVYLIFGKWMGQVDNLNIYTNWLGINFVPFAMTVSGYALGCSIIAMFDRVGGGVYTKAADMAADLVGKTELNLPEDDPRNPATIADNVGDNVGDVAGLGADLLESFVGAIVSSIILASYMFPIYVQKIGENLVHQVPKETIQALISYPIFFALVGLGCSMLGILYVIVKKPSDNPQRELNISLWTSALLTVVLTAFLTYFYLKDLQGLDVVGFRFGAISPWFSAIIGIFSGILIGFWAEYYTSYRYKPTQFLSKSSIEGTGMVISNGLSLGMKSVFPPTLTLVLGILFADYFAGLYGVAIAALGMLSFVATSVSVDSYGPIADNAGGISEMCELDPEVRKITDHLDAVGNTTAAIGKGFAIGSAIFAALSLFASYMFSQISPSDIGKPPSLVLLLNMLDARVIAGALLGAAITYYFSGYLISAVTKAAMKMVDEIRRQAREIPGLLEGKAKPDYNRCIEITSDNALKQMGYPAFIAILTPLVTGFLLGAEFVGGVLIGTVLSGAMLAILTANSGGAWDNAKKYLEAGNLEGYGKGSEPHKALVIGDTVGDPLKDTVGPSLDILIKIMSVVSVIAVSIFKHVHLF
Chain of purified mPPase from P. falciparum (PfPPase-VP1) (Q8IKR1 entry or part of it): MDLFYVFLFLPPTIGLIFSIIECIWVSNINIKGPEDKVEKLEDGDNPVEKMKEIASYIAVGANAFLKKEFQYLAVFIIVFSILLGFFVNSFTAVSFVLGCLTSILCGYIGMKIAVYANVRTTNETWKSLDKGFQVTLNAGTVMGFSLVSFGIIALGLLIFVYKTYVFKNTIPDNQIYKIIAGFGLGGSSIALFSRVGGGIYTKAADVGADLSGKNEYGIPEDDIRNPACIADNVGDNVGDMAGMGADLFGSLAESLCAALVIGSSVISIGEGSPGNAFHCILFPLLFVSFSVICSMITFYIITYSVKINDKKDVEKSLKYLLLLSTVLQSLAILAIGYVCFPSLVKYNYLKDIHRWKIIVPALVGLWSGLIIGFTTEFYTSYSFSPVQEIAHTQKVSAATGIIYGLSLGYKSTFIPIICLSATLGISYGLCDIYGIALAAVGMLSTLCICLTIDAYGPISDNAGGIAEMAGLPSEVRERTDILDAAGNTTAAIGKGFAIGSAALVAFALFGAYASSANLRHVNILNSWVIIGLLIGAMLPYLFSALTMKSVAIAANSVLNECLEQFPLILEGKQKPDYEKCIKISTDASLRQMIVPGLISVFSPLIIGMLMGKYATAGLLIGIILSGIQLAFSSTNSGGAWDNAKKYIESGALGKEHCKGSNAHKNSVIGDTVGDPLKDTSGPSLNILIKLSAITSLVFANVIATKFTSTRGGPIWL

For the molecule `Cc1cc(C)cc(-c2cc(C(=O)Oc3ccccc3Br)nc3cc(Br)nn23)c1` [17 a, 2‐Bromophenyl 2‐bromo‐7‐(3,5‐dimethylphenyl)pyrazolo[1,5‐a]pyrimidine‐5‐carboxylate], the “concentration of aggregate formation” value in data set [1] (TmPPase assay conditions, six concentrations 100–0.1 μM) is on record as “above 20 μM”. Besides, the colloidal aggregation entry in data set [1] (at 10 µM, 1 µM and 0.1 µM) is listed as “negligible/no detectable aggregation”; in data set [1] (at 100 µM, 50 µM and 20 µM), “aggregate formation”. Besides, the pIC50 (as a rule, the IC50 on a negative log10 scale, so that one unit is a factor of ten) was 4.85 in data set [2], 4.24 in data set [3], 4.51 in data set [4] (setting [7]) and 4.51 in data set [4]. In addition, the “fold loss in activity compared to 2” value in data set [2] (TmPPase, 17 a versus 2) turned out to be 2 fold.
Regarding `Cc1cc(C)cc(-c2cc(C(=O)Oc3ccccc3Br)no2)c1` [compound 2], the pIC50 in data set [5] was 5.16. For the same molecule, in data set [6], the “activity ex vivo against P. falciparum” value is on record as “retained activity”.
For the molecule `COc1cc(C2c3c(-c4cc(Cl)c(C)cc4O)n[nH]c3C(=O)N2Cc2ccccc2)ccc1O` (centres unmarked) [compound 12], the pIC50 in data set [2] is > 4.60 and 4.60; in data set [3], 3.74; in data set [4] (setting [7]), 5.44. Moreover, the IC50 result in data set [3] was “comparably weak”.
